As usually defined, the IC50 is the concentration at which inhibition is half-maximal. What is called AC50 is the midpoint of the concentration-response curve, whichever way the signal moves. A word on the EC50: it is the midpoint of the concentration-response curve.

For eight molecules, IC50, AC50 and EC50 results are on record in ChEMBL document CHEMBL1201862, “PubChem BioAssay data set” (2004).

Assay [1] can be described thus: Counterscreen for inhibitors of Trypanosoma brucei methionyl tRNA synthetase (MetRS): Luminescence-based cell-based high throughput dose response assay to identify compounds that are cytotoxic to Jurkat human T lymphocyte cells. The format is functional.
The target of assay [2] is T1, Methionyl-tRNA synthetase, putative (Trypanosoma brucei brucei, UniProt Q38C91).
T1 sequence (Q38C91 whole entry): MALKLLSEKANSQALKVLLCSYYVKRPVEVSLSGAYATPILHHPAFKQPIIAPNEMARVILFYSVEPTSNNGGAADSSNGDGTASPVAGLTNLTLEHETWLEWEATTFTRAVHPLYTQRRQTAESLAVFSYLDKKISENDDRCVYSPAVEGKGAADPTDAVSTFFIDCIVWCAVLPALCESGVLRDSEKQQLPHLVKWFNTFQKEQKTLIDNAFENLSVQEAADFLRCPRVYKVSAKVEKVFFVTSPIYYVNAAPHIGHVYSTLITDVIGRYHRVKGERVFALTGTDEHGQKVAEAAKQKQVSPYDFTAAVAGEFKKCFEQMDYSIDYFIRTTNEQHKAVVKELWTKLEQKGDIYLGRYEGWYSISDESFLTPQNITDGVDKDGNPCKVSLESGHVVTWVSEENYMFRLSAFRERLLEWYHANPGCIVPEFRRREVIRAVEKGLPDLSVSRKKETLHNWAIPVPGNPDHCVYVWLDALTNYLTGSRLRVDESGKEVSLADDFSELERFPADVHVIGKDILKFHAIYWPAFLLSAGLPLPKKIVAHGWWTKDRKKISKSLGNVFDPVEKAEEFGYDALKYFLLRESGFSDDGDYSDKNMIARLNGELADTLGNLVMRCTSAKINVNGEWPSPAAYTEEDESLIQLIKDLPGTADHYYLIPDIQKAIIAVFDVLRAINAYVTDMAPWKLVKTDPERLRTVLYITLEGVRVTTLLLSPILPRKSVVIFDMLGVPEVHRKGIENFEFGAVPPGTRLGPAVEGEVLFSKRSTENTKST
The format is functional, Trypanosoma brucei brucei strain 927/4 GUTat10.1.

Assay [3] addresses T1, Methionyl-tRNA synthetase, putative. The format is functional, Trypanosoma brucei brucei strain 927/4 GUTat10.1. This is another data set of the same source.
Assay [4] in a line: Late stage counterscreen for inhibitors of Trypanosoma brucei methionyl tRNA synthetase (MetRS): Luminescence-based cell-based high throughput dose response assay to identify compounds that are cytotoxic to Jurkat human T lymphocyte cells. The format is functional.
The nature of assay [5]: OV-90 cell viability loss – plate reader, dry powder, SA8, PAX8 inhibitor project, dose response (AID 743149). Format: functional, cell-based.
The nature of assay [6]: COV434 cell viability loss – plate reader, dry powder, SA7, cytotoxicity control for PAX8 inhibitor project, dose response (AID 743145). Format: functional, cell-based.
Assay [7] can be described thus: inhibitors acting on PAX2 in cells – cell-based, plate reader, dry powder samples, selectivity assay for PAX8 inhibitor project, dose response (AID 743048).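 Further: HEK293 cells carrying a WT1 promoter luciferase reporter driven by expressed Pax2; potency is for inhibition of Pax2 driven reporter signal.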 The format is functional.
Assay [8] is described as follows: OVCAR-3 cell viability loss – plate reader, dry powder samples, PAX8 inhibitor project, dose response (AID 743044). The format is functional, cell-based.
Assay [9] can be described thus: PAX5 cellular inhibition readout – cell-based, plate reader, dry powder samples, selectivity assay for PAX8 inhibitor project, dose response (AID 743047).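 Further: HEK293 cells carrying a Pax5 driven CD19 promoter luciferase reporter; potency of inhibitors that lower reporter luminescence.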 The format is functional.
A short description of assay [10]: IGROV1 cell killing – plate reader, dry powder samples, PAX8 inhibitor project, dose response (AID 743043). The format is functional, cell-based. As to conditions: IGROV-1.
The nature of assay [11]: PAX8-dependent cell viability loss – plate reader, dry powder, dose response (AID 743049). Format: functional, cell-based.
Assay [12] in a line: COV362 cell viability loss – plate reader, dry powder, SA12, cytotoxicity control for PAX8 inhibitor project, dose response (AID 743144). Format: functional, cell-based.
In a further assay the target is Paired box protein Pax-8 (Homo sapiens, UniProt Q06710). The assay is described as follows: PAX8 transcriptional activity inhibition in RMG-I – RMG-I cells, luciferase, cherry-pick, dose response (AID 687027).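 Further: luciferase reporter driven by Pax8 target thyroperoxidase promoter measured by SteadyGlo luminescence.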 The format is functional, cell-based.
Sequence of Paired box protein Pax-8 (Q06710 whole entry): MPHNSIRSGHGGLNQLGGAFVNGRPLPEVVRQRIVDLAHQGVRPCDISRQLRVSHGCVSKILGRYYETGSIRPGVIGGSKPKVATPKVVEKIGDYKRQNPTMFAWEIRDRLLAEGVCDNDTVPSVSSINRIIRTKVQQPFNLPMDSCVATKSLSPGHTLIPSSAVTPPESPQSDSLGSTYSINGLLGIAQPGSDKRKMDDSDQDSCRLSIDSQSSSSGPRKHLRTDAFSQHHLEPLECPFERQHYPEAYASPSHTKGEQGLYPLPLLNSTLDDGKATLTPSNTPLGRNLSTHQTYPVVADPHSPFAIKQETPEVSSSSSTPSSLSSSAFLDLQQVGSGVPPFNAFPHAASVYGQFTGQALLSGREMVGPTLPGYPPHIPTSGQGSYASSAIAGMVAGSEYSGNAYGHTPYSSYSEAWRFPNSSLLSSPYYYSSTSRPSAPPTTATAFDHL
Assay [13] has as its target NAD-dependent protein deacylase sirtuin-5, mitochondrial (Homo sapiens, UniProt Q9NXA8). The assay can be described thus: sirtuin-5 deacylation blockers, concentration series – biochemical, fluorescence imaging, cherry-pick, set 5, dose response (AID 720591).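 Further: desuccinylation of succinyl peptide AMC substrate read as fluorescence after trypsin release; potency of inhibitors that lower fluorescence and may act on trypsin instead.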
Assay [14] addresses Disintegrin and metalloproteinase domain-containing protein 17 (Homo sapiens, UniProt P78536). The assay is described as follows: exosite inhibitors of ADAM17, dose response, biochemical (AID 743260).
Assay [15] in a line: inhibition of ADAM10 peptide cleavage – biochemical, FRET peptide substrate, recombinant human ADAM10, selectivity assay for ADAM17 exosite inhibitor project, dose response (AID 743259).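 Further: ADAM10 enzyme cleaving a FRET peptide substrate.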
The nature of assay [16]: HEK293 Cytotoxicity Assay Measured in Cell-Based System Using Plate Reader - 7071-01_Inhibitor_Dose_CherryPick_Activity_Set2. The format is functional.
Another assay has as its system HEK293. The assay is described as follows: viability loss in HEK293T cells – cell-based, ATP luminescence, cherry-pick samples, cytotoxicity control, dose response (AID 687005).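 Further: cells exposed to compound for 48 hours.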 The format is functional. Conditions: Homo sapiens.
Assay [17] in a line: viability loss in HepG2 liver cells – cell-based, ATP luminescence, cherry-pick, set 6, cytotoxicity control, dose response (AID 1053125). The format is functional.
The nature of assay [18]: cells. Conditions: A549.
The nature of assay [19]: cells. Conditions: HEK293.
The nature of assay [20]: non-specific 3'UTR reporter inhibition in Clone20-Shn3RL – cell-based, Renilla luciferase, cherry-picked, counter-screen for Shn3 inhibitor project, dose response (AID 624133). The format is functional.
Assay [21] is described as follows: EF1alpha-driven Renilla reporter with control 3'UTR suppression – Clone20-Shn3RL cells, dual-Glo, cherry-pick, set 2, counter-screen for Shn3 3'UTR targeting project, dose response (AID 720724). The format is functional, cell-based. As to conditions: Dual-Go Shn3RL. (In general: The purpose of a counterscreen is to sort out artefacts and off-target activity.)
Assay [22] is described as follows: reduction of Shn3 3'UTR-driven luciferase in osteoblasts – cell-based, Clone20 osteoblasts, firefly luciferase, cherry-picked, dose response (AID 624132).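 Further: firefly luciferase luminescence from reporter carrying the Shn3 3'UTR in osteoblasts.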 The format is functional.
Assay [23] in a line: Shn3 3'UTR reporter signal decrease – cell-based, Clone20 osteoblasts, firefly luciferase, cherry-pick, set 2, Schnurri-3 inhibitor project, dose response (AID 720490).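 Further: actives lower the luminescence signal as inhibitors.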 The format is functional.
Assay [24] concerns the target T2, Oxysterols receptor LXR-beta (Homo sapiens, UniProt P55055).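 Further: Cell-based luminescence dose-response assay of agonist activity at LXR, run as a confirmatory counterscreen to a daf-12 agonist screen; HEK293 cells with Gal4-LXR fusion and GAL4-driven luciferase reporter; agonist potency from rising luciferase signal of a Gal4-LXR reporter.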
T2 sequence (P55055 whole entry): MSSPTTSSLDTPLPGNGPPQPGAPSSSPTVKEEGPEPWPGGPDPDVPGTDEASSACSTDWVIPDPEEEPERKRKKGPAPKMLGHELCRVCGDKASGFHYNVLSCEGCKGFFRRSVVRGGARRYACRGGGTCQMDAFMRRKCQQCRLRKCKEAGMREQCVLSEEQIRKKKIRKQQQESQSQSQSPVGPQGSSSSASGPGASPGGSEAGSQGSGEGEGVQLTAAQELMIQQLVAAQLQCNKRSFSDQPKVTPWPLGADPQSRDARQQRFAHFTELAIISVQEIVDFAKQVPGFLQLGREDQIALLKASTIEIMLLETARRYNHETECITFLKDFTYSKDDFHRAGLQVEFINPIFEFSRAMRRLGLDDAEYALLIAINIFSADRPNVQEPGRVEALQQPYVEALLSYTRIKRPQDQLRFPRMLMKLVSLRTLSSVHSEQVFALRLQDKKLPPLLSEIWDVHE
The format is functional, cell-based.

Assay [25] in a line: cells.

Activity calls are given as the source filed them. For most assays here, no stated cut-off is given here; in the data, actives have a measured AC50 and inactives only a lower limit.

Sequence of NAD-dependent protein deacylase sirtuin-5, mitochondrial (Q9NXA8 whole entry, the tested form may be a part): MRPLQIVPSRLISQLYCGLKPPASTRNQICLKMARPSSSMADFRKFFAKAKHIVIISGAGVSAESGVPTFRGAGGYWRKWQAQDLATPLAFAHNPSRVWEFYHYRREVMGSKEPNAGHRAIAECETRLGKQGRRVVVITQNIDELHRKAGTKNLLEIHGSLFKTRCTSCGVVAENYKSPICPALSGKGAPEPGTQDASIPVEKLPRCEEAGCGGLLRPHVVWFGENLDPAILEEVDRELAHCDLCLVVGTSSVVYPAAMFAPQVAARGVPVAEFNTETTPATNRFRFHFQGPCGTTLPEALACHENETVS
Sequence of Disintegrin and metalloproteinase domain-containing protein 17 (P78536 whole entry, the tested form may be a part): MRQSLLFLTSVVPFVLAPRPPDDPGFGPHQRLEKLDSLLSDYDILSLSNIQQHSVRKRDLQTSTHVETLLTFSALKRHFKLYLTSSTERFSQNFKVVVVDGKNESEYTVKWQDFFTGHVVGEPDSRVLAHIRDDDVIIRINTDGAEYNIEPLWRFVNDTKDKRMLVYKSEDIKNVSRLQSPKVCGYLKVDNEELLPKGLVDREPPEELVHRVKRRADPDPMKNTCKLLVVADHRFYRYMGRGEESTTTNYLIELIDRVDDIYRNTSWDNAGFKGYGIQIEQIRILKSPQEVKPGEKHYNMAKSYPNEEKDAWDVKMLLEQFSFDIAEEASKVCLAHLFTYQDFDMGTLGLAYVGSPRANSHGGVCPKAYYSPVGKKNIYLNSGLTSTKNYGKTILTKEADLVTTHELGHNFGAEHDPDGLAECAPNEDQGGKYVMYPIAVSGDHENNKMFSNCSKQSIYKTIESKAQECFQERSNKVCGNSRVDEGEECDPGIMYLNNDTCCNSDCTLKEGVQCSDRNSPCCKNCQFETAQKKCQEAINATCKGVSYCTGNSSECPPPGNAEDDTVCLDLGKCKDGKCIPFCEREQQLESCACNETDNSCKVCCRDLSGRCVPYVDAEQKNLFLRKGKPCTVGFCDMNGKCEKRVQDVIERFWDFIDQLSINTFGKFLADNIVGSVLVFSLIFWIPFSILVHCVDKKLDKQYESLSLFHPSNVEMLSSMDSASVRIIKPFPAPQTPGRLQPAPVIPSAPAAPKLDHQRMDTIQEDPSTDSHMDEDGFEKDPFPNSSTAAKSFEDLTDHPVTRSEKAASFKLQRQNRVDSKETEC

`CC(C)(C)[C@H]1C=C(C(=O)NCc2nc3ccccc3[nH]2)O[C@@H](OCc2ccc(CO)cc2)C1`: the IC50 is 44.2 µM (inactive) in [1], 3.78 µM (active) in assay [2], 1.99 µM (active) in [3] and 77 µM (inactive) in assay [4].

For the molecule `Cc1nc2sc(C(c3ccco3)N3CCN(C(c4ccccc4)c4ccccc4)CC3)c(O)n2n1` (configuration not stated), the AC50 in assay [5] was 47 µM (active); in assay [6] it was 45.6 µM (active); in [7], 62.5 µM (active); in assay [8] it was 40.9 µM (active); in assay [9] it was > 100 µM (inactive); in assay [10] it was 17 µM (active). Further, the results for the concentration at half-maximal activity (AC50) (in [11]; in assay [12]; at Paired box protein Pax-8) were 8.59 µM (active), 69 µM (active) and 5.25 µM (active), respectively.

Regarding `O=C(O)CCNC(=O)c1ccc(NC(=O)Cc2ccc(Cl)cc2)cc1`, the half-maximal activity concentration (AC50) in [13] is 18.8 µM (active).

Take `Cc1cc(C)n(CCc2nc(-c3ccc(C(C)(C)C)cc3)cs2)n1`: the figures for the IC50 in [14] and in assay [15] were > 69.5 µM (inactive) and 36.5 µM (inactive), respectively.

`Cc1cccc(C)c1NC(=O)C1CCCN1C(=O)OC(C)(C)C` (configuration not stated): the AC50 (in [16]; in the assay with HEK293) was 50.8 µM (active) in each case.

In the case of `O=C(NCc1cc(C(F)(F)F)ccc1Cl)c1cccc2c1C(=O)c1ccc(Cl)cc1S2(=O)=O`, the AC50 in [17] is > 52 µM (inactive); in the assay “cells [18]”, 37.6 µM (active); in “cells [19]” it was > 52 µM (inactive).

For `CCC(C)c1ccc(S(=O)(=O)N2CCN(C(=O)c3ccc(Cl)c(S(=O)(=O)N4CCOCC4)c3)CC2)cc1` (configuration not stated), the AC50 is > 70 µM (inactive) in [20], 61.3 µM (active) in [21], 5.32 µM (active) in assay [22] and 6.16 µM (active) in assay [23].

Regarding `COc1cccc(-c2nc3n(n2)CCc2ccccc2-3)c1`, the EC50 (in assay [24]; in “cells [25]”) was > 67.5 µM (inactive) in each case.
